The source made the active and inactive calls. No cut-off for these calls is given here.
Experiments:
[1] = biological target: T1, Non-receptor tyrosine-protein kinase TYK2 (Homo sapiens, UniProt P29597); assay: Inhibition of TYK2 dependent IFNalpha-stimulated STAT3 phosphorylation in human Jurkat cells; type: cell-based
[2] = Stability in mouse liver microsomes assessed as parent compound remaining measured after 60 mins; type: ADME, Microsome; conditions: read-out: Stability
[3] = Stability in human liver microsomes assessed as parent compound remaining measured after 60 mins; type: ADME, Microsome; conditions: read-out: Stability
[4] = biological target: T1, Non-receptor tyrosine-protein kinase TYK2; assay: Binding affinity to TYK2 JH2 domain (unknown origin) assessed as melting temperature at 1 uM by thermal shift assay; conditions: tested as the 2H-labelled form
[5] = biological target: T1, Non-receptor tyrosine-protein kinase TYK2; assay: Binding affinity to TYK2 JH2 domain (unknown origin) assessed as melting temperature at 10 uM by thermal shift assay; conditions: tested as the 2H-labelled form
Mus musculus = assay: Anti-colitis activity against anti-CD40 induced immunodeficient Rag1 KO colitis mouse model assessed as decrease in colon weight at 15 to 30 mg/kg, po bid; type: functional, organism-based; conditions: dose 15-30 mg/kg, tested as the 2H-labelled form

T1 sequence (P29597 whole entry): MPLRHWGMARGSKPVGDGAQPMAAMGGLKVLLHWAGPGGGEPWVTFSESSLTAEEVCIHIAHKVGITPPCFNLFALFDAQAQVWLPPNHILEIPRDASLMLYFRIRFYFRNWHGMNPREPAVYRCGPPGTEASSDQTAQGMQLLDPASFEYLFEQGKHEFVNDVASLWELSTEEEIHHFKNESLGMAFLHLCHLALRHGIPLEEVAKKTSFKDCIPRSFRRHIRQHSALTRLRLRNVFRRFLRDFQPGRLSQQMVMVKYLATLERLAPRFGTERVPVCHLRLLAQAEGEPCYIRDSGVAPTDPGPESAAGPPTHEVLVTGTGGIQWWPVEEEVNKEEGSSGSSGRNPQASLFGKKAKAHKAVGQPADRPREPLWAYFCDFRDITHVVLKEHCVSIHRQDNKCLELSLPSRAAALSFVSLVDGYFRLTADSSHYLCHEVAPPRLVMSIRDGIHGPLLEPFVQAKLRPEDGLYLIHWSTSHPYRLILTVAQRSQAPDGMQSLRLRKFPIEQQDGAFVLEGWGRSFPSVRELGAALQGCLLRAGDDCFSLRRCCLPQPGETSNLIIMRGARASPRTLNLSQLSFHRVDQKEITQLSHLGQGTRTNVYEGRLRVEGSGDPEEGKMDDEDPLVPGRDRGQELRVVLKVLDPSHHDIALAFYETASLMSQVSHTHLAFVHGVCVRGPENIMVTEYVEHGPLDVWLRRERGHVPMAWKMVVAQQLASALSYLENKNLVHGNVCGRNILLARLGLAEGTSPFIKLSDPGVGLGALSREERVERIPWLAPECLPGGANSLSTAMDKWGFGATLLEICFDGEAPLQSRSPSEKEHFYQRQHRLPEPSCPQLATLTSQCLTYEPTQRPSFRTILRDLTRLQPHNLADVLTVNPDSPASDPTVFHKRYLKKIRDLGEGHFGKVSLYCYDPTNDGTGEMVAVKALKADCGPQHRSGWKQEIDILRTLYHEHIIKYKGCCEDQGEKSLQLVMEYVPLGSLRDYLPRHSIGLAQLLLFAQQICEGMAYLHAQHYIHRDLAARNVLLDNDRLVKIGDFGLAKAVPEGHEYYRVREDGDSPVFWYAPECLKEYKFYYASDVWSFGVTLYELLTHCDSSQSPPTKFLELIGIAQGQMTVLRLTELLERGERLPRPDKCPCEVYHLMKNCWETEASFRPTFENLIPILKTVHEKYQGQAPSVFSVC

IC50 [1] [nM]	remaining at 1 h [2] [%]	remaining at 1 h [3] [%]	Tm [4] [°C]	Tm [5] [°C]	Structure (SMILES)	Activity (Mus musculus)
11	–	–	–	–	[2H]C([2H])([2H])NC(=O)c1nnc(NC(=O)C2CC2)cc1Nc1cccc(C(=O)Nc2cccc(-n3ccccc3=O)c2)c1OC	–
1.4	53.9	50.6	–	–	[2H]C([2H])([2H])NC(=O)c1nnc(NC(=O)C2CC2)cc1Nc1cccc(C(=O)Nc2ccc(N3CCCCC3=O)cc2)c1OC	–
12	9	1.91	–	–	[2H]C([2H])([2H])NC(=O)c1nnc(NC(=O)C2CC2)cc1Nc1cccc(C(=O)Nc2ccc(N3CCCCC3)cc2)c1OC	–
5.7	36.6	37.8	–	–	[2H]C([2H])([2H])NC(=O)c1nnc(NC(=O)C2CC2)cc1Nc1cccc(C(=O)Nc2ccc(N3CCCCC3=O)cc2F)c1OC	–
1.8	44.8	41.8	–	–	[2H]C([2H])([2H])NC(=O)c1nnc(NC(=O)C2CC2)cc1Nc1cccc(C(=O)Nc2ccc(C3CCCNC3=O)cc2)c1OC (centres undefined)	–
10	–	–	–	–	[2H]C([2H])([2H])NC(=O)c1nnc(NC(=O)C2CC2)cc1Nc1cccc(C(=O)Nc2ccc(NC(=O)C3CCCC3)cc2)c1OC	–
43	–	–	–	–	[2H]C([2H])([2H])NC(=O)c1nnc(NC(=O)C2CC2)cc1Nc1cccc(C(=O)Nc2ccc(-c3ncn(CC)n3)cc2)c1OC	–
–	–	–	53.8	57	CNC(=O)c1nnc(NC(=O)C2CC2)cc1Nc1cccc(C(=O)Nc2ccc(-c3ncn(C)n3)cc2)c1OC	–
–	–	–	60.1	70.2	CNC(=O)c1nnc(NC(=O)C2CC2)cc1Nc1cccc(C(=O)Nc2ccc(C3CCCNC3=O)cc2)c1OC (centres undefined)	–
3.1	4.53	0.06	–	–	[2H]C([2H])([2H])NC(=O)c1nnc(NC(=O)C2CC2)cc1Nc1cccc(C(=O)Nc2ccc(N3CCCCC3=O)c(Cl)c2)c1OC	–
–	–	–	60.4	65.5	CNC(=O)c1nnc(NC(=O)C2CC2)cc1Nc1cccc(C(=O)Nc2ccc(N3CCCCC3=O)c(Cl)c2)c1OC	–
–	–	–	56.2	60.8	CNC(=O)c1nnc(NC(=O)C2CC2)cc1Nc1cccc(C(=O)Nc2ccc(N3CCCCC3=O)cc2F)c1OC	–
–	–	–	59.6	64.8	CNC(=O)c1nnc(NC(=O)C2CC2)cc1Nc1cccc(C(=O)Nc2ccc(N3CCCCCC3=O)cc2)c1OC	–
6.4	54.9	78.5	–	–	[2H]C([2H])([2H])NC(=O)c1nnc(NC(=O)C2CC2)cc1Nc1cccc(C(=O)Nc2ccc(-n3cccn3)cc2)c1OC	–
–	–	–	52.9	57.6	CNC(=O)c1nnc(NC(=O)C2CC2)cc1Nc1cccc(C(=O)Nc2cccc(-n3ccccc3=O)c2)c1OC	–
–	–	–	58.7	64.8	CNC(=O)c1nnc(NC(=O)C2CC2)cc1Nc1cccc(C(=O)Nc2ccc(N3CCCCS3(=O)=O)cc2)c1OC	–
1	27.5	39.9	–	–	[2H]C([2H])([2H])NC(=O)c1nnc(Nc2ccc(F)cn2)cc1Nc1cccc(C(=O)Nc2ccc(N3CCCCC3=O)cc2)c1OC	–
–	–	–	52.2	54	CNC(=O)c1nnc(NC(=O)C2CC2)cc1Nc1cccc(C(=O)Nc2ccc(-n3ccnc3)cc2)c1OC	–
14	–	–	–	–	[2H]C([2H])([2H])NC(=O)c1nnc(NC(=O)C2CC2)cc1Nc1cccc(C(=O)Nc2ccc(-c3ncn(C)n3)cc2)c1OC	–
–	–	–	56.2	61.1	CNC(=O)c1nnc(NC(=O)C2CC2)cc1Nc1cccc(C(=O)Nc2ccc(-n3cccn3)cc2)c1OC	–
2.5	5.63	0.39	–	–	[2H]C([2H])([2H])NC(=O)c1nnc(NC(=O)C2CC2)cc1Nc1cccc(C(=O)Nc2ccc(N3CCCCCC3=O)cc2)c1OC	–

IC50 [1] [nM]	remaining at 1 h [2] [%]	remaining at 1 h [3] [%]	Tm [4] [°C]	Tm [5] [°C]	Structure (SMILES)	Activity (Mus musculus)
–	–	–	54.9	58.2	CCn1cnc(-c2ccc(NC(=O)c3cccc(Nc4cc(NC(=O)C5CC5)nnc4C(=O)NC)c3OC)cc2)n1	–
1.9	18.2	3.26	–	–	[2H]C([2H])([2H])NC(=O)c1nnc(NC(=O)C2CC2)cc1Nc1cccc(C(=O)Nc2ccc(N3CCCCS3(=O)=O)cc2)c1OC	–
–	–	–	56	62.2	CNC(=O)c1nnc(NC(=O)C2CC2)cc1Nc1cccc(C(=O)Nc2ccc(-n3ccccc3=O)cc2)c1OC	–
51	–	–	–	–	[2H]C([2H])([2H])NC(=O)c1nnc(NC(=O)C2CC2)cc1Nc1cccc(C(=O)Nc2ccc(-n3ccnc3)cc2)c1OC	–
–	–	–	56.5	61.9	CNC(=O)c1nnc(NC(=O)C2CC2)cc1Nc1cccc(C(=O)Nc2ccc(N3CCCC3=O)cc2)c1OC	–
–	–	–	66	68.8	CNC(=O)c1nnc(Nc2ccc(F)cn2)cc1Nc1cccc(C(=O)Nc2ccc(N3CCCCC3=O)cc2)c1OC	–
3.2	71.3	75.8	–	–	[2H]C([2H])([2H])NC(=O)c1nnc(NC(=O)C2CC2)cc1Nc1cccc(C(=O)Nc2ccc(-n3ccccc3=O)cc2)c1OC	–
–	–	–	60.6	66.6	CNC(=O)c1nnc(NC(=O)C2CC2)cc1Nc1cccc(C(=O)Nc2ccc(N3CCCCC3=O)cc2)c1OC	–
–	–	–	64	66.5	CNC(=O)c1nnc(Nc2ccccn2)cc1Nc1cccc(C(=O)Nc2ccc(N3CCCCC3=O)cc2)c1OC	–
–	–	–	52.7	56.2	CNC(=O)c1nnc(NC(=O)C2CC2)cc1Nc1cccc(C(=O)Nc2ccc(NC(=O)C3CCCC3)cc2)c1OC	–
24	–	–	–	–	[2H]C([2H])([2H])NC(=O)c1nnc(NC(=O)C2CC2)cc1Nc1cccc(C(=O)Nc2ccc(-c3cccnc3)cc2)c1OC	–
8.3	55.1	86.9	–	–	[2H]C([2H])([2H])NC(=O)c1nnc(NC(=O)C2CC2)cc1Nc1cccc(C(=O)Nc2ccc(N3CCCC3=O)cc2)c1OC	–
–	–	–	58.2	63.4	CNC(=O)c1nnc(NC(=O)C2CC2)cc1Nc1cccc(C(=O)Nc2ccc(N3CCCCC3)cc2)c1OC	–
55	–	–	–	–	[2H]C([2H])([2H])NC(=O)c1nnc(NC(=O)C2CC2)cc1Nc1cccc(C(=O)Nc2ccc(-c3cccc(=O)[nH]3)cc2)c1OC	–
–	–	–	57	62	CNC(=O)c1nnc(NC(=O)C2CC2)cc1Nc1cccc(C(=O)Nc2ccc(-c3ncn(C4CC4)n3)cc2)c1OC	Active
–	–	–	55.9	60.1	CNC(=O)c1nnc(NC(=O)C2CC2)cc1Nc1cccc(C(=O)Nc2ccc(-c3ccc(F)c(=O)[nH]3)cc2)c1OC	–
13	58.2	81.8	–	–	[2H]C([2H])([2H])NC(=O)c1nnc(NC(=O)C2CC2)cc1Nc1cccc(C(=O)Nc2ccc(-c3ccc(F)c(=O)[nH]3)cc2)c1OC	–
–	–	–	54.1	55.5	CNC(=O)c1nnc(NC(=O)C2CC2)cc1Nc1cccc(C(=O)Nc2ccc(-c3cccnc3)cc2)c1OC	–
0.81	23	44.5	–	–	[2H]C([2H])([2H])NC(=O)c1nnc(Nc2ccccn2)cc1Nc1cccc(C(=O)Nc2ccc(N3CCCCC3=O)cc2)c1OC	–
–	–	–	52.5	56.5	CNC(=O)c1nnc(NC(=O)C2CC2)cc1Nc1cccc(C(=O)Nc2ccc(-c3cccc(=O)[nH]3)cc2)c1OC	–

Reference: ChEMBL document CHEMBL5252617, “Design, synthesis and biological evaluation of novel N-(methyl-d3) pyridazine-3-carboxamide derivatives as TYK2 inhibitors” (Bioorg Med Chem Lett, 2023)
